Holding throughout (format): in vivo, human
Data set [1] deals with metastatic colon cancer, liver metastasis. The experiment in a line: Prior therapies of the Example 1 patient before C225. The note with it: same patient. Here is the method: (§1) A patient presented with abdominal pain and constipation. […] Pathology confirmed metastatic colon cancer which is incurable. […] Since there were no other standard treatment options their tumor was assayed for EGF receptor which was positive.

Data set [2] deals with metastatic colon cancer (EGF receptor positive). The experiment in a line: Example 1: patient with metastatic colon cancer treated with C225 and CPT-11. The note with it: IRINOTECAN 125 mg/m^2 weekly given with C225. Here is the method:
as §1
For the first two weeks, IRINOTECAN® was administered at a dose of 125 mg/m^2.

Data set [3] has as its system colon cancer relapse (unresectable peritoneal disease, pulmonary metastasis). The data set can be described thus: Example 2: same patient after relapse, treated again with C225 and dose reduced CPT-11, then C225 alone. The note with it: dose reduced CPT-11 with C225. From the text: The subsequent history of the patient described in Example 1 is as follows. […] This was resected and subsequently they received both intrahepatic and systemic chemotherapy (FUDR and CPT-11) for 6 months.

Entries after “also recorded” stand apart in the source; their conditions may differ.

Regarding `O=c1[nH]cc(F)c(=O)[nH]1` [5-FU, 5-fluorouracil], the “disease course on prior therapy” value in data set [1] is “progressed with increasing liver metastasis”.

In the case of `O=C1[O][Pt]2([NH][C@@H]3CCCC[C@H]3[NH]2)[O]C1=O` [OXALOPLATIN], the “disease course on prior therapy” value in data set [1] is on record as “further disease progression in the liver”.

As to `CCc1c2c(nc3ccc(OC(=O)N4CCC(N5CCCCC5)CC4)cc13)-c1cc3c(c(=O)n1C2)COC(=O)[C@]3(O)CC` [IRINOTECAN], the “disease course on prior therapy” value in data set [1] is given as “continued to progress in the liver”. Besides, in data set [2], the “toxicity causing IRINOTECAN dose to be held or reduced” value is listed as “diarrhea; also recorded: neutropenia”. Moreover, the “tolerability of CPT-11” value in data set [3] is “discontinued secondary to toxicity”.

The values above are taken from US20080008704A1, “Methods of treating colorectal cancer with anti-epidermal growth factor antibodies” (priority 2001, published 2008).
